{
  "source": "patent US20060106099A1",
  "about": "“Novel inhibitors of ubiquitin isopeptidases” (priority 2002, published 2006)",
  "key": {"HCT 116 +/+ cells [1]": {"system": "HCT 116 +/+ cells", "experiment": "MTT cell viability assay, HCT 116 p53 +/+ cells", "details": "48 h, MTT, isogenic pair", "description": "(§1) Cell viability was measured with MTT reagent as described in materials and methods.\n(§2) Cell viability was detected by the MTT assay. Briefly, 1×10^5 cells were incubated per well of a sterile, 96-well assay plate with 0-60 μM of test compounds for 48 hours. MTT reagent was added to each well, final concentration of 0.5 mg/mL, and incubated for an additional 3 hours. The media was aspirated and remaining MTT reagent from each well and added 100 μL of HCl:isopropanol (1:24). The absorbance of each sample was measured at 405 nm."}, "isopeptidase": {"system": "isopeptidase", "details": "cited from earlier work"}, "HCT 116 +/+ cells [2]": {"system": "HCT 116 +/+ cells", "description": "as §1, §2"}, "p53": {"system": "p53", "experiment": "p53 accumulation, ratio RKO-E6 cells/RKO cells (immunoblot, densitometry)", "assay_type": "cell-based, human", "details": "6 h; etoposide 50 μM, MG115, NSC-302979, DBA 20 μM, others 60 μM", "method_in_brief": "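RKO-E6 cells exposed at 37° C for 6, 12 or 24 h to compound concentrations giving 80% cell death at 48 h; for p53, RKO and RKO-E6 cells treated 6 h. Lysates (12.5 μg protein) immunoblotted for ubiquitin or p53 with ECL detection; p53 quantified by densitometry as RKO-E6/RKO ratio.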"}, "ubiquitin isopeptidases [3]": {"system": "ubiquitin isopeptidases", "experiment": "Ubiquitin isopeptidase activity, Ub-PEST substrate, lysates of treated RKO and HCT 116 cells", "assay_type": "cell-based, human", "details": "cells treated 6, 20 or 60 μM, 12 h", "procedure": "A) Inhibition of isopeptidase proteolysis of Ub-PEST substrate. RKO and HCT 116 cells were treated with DMSO vehicle, 6, 20, or 60 μM of Δ12-PGJ2, DBA, NSC-302979, or curcumin, 60 μM PGB1, 60 μM NSC-156236, or 60 μM DPTP for 12 h, 37° C. Cell lysates from each treatment were incubated with Ub-PEST, as described in materials and methods. Samples were fractionated by SDS-PAGE and proteins detected with ubiquitin epitopes immunochemically (HCT 116 ^+/+ western blot shown as example of raw data). […] B) Inhibition of isopeptidase activity by test panel compounds. Isopeptidase activity was determined by measuring via densitometry, the amount of Ub generated by isopeptidase cleavage of Ub-PEST. Bar graph patterns are DMSO vehicle (black), Δ12-PGJ2 (hatched), DBA (horizontal lines), NSC-302979 (white), PGB1 (diagonally downward right lines), and NSC-156236 (diagonally downward left lines). The amount of Ub generated in the vehicle treated sample (panel A, lane 2) is arbitrarily designated 100%.\nCellular isopeptidase enzymatic activity was measured with two assays that used different substrates. In one assay ubiquitin-PEST (Ub-PEST) was used, a full-length ubiquitin molecule with an 18 amino acid c-terminal peptide extension (total mass=10.5 kDa). Ubiquitin isopeptidases specifically cleave the 18 amino acid peptide extension, releasing full-length ubiquitin (8.5 kDa).\nBriefly, 6×10^5 cells were incubated with 0-60 μM of test compounds for 12 hrs. Cells were lysed in 50 μL of 25 mM HEPES, 5 mM EDTA, 0.1% CHAPS, 5 mM ATP, pH 7.5. The protein concentration of each sample was adjusted to 0.3 mg/mL and incubated with 50 μg/mL Ub-PEST for 45 minutes at 25° C. Under these conditions, Ub-PEST hydrolysis occurs at a linear rate. 20 μL samples were mixed with 20 μL 2× Laemmli buffer, boiled briefly, and fractionated by SDSPAGE. Isopeptidase activity was monitored by determining the amount of product (8.5 kDa ubiquitin) formation."}, "RKO cells [4]": {"system": "RKO cells"}, "[5]": {"system": "polyubiquitin conjugates in RKO-E6 cells", "experiment": "Accumulation of polyubiquitin in RKO-E6 cells (immunoblot)", "assay_type": "cell-based, human", "details": "EC80 or 60 μM, 6-24 h", "procedure": "A) Accumulation of polyubiquitin. RKO-E6 cells were treated with DMSO vehicle for 24 h, 37° C., or with the concentrations of test compounds that gave 80% cell death (as determined by cell viability assay at 48 h) for 6, 12, or 24 h, 37° C. […] Schematic depicting p53 degradation via the proteasome pathway in RKO cells versus RKO-E6 cells. The activity of the HPV E6 oncoprotein hastens p53 degradation in RKO-E6 cells. ii. RKO and RKO-E6 cells were treated with vehicle, etoposide (50 μM), MG115 (20 μM), Δ12-PGJ2 (60 μM), NSC-302979 (20 μM, DBA (20 μM), curcumin (60 μM), PGB1 (60 μM), NSC-156236, (60 XM)or DPTP 60 μM for 6 h, 37° C. Lysates were fractionated by SDS-PAGE and their p53 content determined immunochemically. iii. p53 levels were measured by densitometry and the ratio of p53 protein in RKO-E6 cells/RKO cells calculated.\nThe medium was removed and cells lysed in 50 mM Tris, pH 7.4, 100 mM NaCl, 2 mM EDTA with 0.1% SDS, 0.1% deoxycholate, 1× complete protease inhibitor mixture. Protein concentration was measured by the Bradford method. Equal portions of the total cell lysate were fractionated from each sample (12.5 μg of protein) by SDS-PAGE. Proteins were transferred to poly(vinylidene difluoride) blocked with 5% (w/v) nonfat dry milk in Trisbuffered saline [20 mM Tris-HCl, pH 7.5, 100 mM sodium chloride, 0.1% (v/v) Tween 20]. Proteins were detected immunochemically by using primary antibodies directed against p53 (1:4000) or ubiquitin (1:1000), followed by horseradish peroxidase-conjugated secondary antibodies (1:4000). Antigen-antibody complexes were detected with enhanced chemiluminescence reagents. Gels were scanned and quantified intensities using Kodak 1D Image Analysis Software."}, "RKO cells [6]": {"system": "RKO cells", "experiment": "MTT cell viability assay, RKO cells", "details": "48 h, MTT, isogenic pair"}, "ubiquitin isopeptidases [7]": {"system": "ubiquitin isopeptidases", "experiment": "Ubiquitin isopeptidase activity, z-LRGG-AMC substrate, lysates of treated RKO and HCT 116 cells", "assay_type": "cell-based, human", "details": "cells treated 6, 20 or 60 μM, 12 h", "procedure": "RKO (upper) and HCT 116 ^+/+ cells (lower) were treated with DMSO vehicle, 6, 20, or 60 μM of Δ12-PGJ2, DBA, NSC-302979, or curcumin, 60 μM PGB1, 60 μM NSC-156236, or 60 μM DPTP for 12 h at 37° C. Cell lysates (0.5 mg/mL) from each treatment were incubated with the isopeptidase substrate, z-LRGG-AMC, for 3 h, 37° C. The amount of AMC cleaved by isopeptidase was determined fluorometrically, as described in Materials and Methods.\nThe second assay used a fluorescent tetrapeptide, z-LRGG-AMC, as a substrate that mimics the carboxy-terminus of ubiquitin. Isopeptidase activity hydrolyzes the bond between the c-terminal glycine and the fluorophore. This tetrapeptide also undergoes slow proteolysis by the catalytic subunit of the proteasome. To minimize this background rate of proteolysis cell lysates were incubated with 30 μM MG115 for 30 minutes at 4° C., prior to substrate incubation (>90% proteasome inhibition). Cells were teeated as above, lysed in 250 μL of lysis buffer per sample, and adjusted protein concentration to 0.5 mg/mL prior to incubation with MG115. Next, z-LRGG-AMC substrate was added and fluorescence was quantified of the AMC moiety cleaved by isopeptidase action."}},
  "note": "pEC50: −log10 of the molar value.",
  "data": [
    {"smiles": "CCCCC[C@H](O)/C=C/C1=C(CCCCCCC(=O)O)C(=O)CC1", "note": "[PGB1]", "values": [
      {"measurement": "cell death in HCT 116 +/+ compared with HCT 116 −/− cells", "setting": "HCT 116 +/+ cells [1]", "result": "did not cause significant cell death"},
      {"measurement": "pEC50", "setting": "RKO-E6 cells", "result": "< 4.22"},
      {"measurement": "isopeptidase inhibition relative to Δ12-PGJ2", "setting": "isopeptidase", "result": "inactive"},
      {"measurement": "pEC50", "setting": "HCT 116 +/+ cells [2]", "result": "< 4.22"},
      {"measurement": "ratio of p53 protein [RKO-E6 cells/RKO cells]", "setting": "p53", "result": "significantly less than unity"},
      {"measurement": "pEC50", "setting": "HCT 116 −/− cells", "result": "< 4.22"},
      {"measurement": "inhibition of isopeptidase cleavage of Ub-PEST", "setting": "ubiquitin isopeptidases [3]", "result": "did not inhibit isopeptidase activity"},
      {"measurement": "pEC50", "setting": "RKO cells [4]", "result": "< 4.22"},
      {"measurement": "cellular accumulation of polyubiquitin conjugates", "setting": "[5]", "result": "did not cause appreciable cellular accumulation of ubiquitin conjugates"},
      {"measurement": "cell death in RKO compared with RKO-E6 cells", "setting": "RKO cells [6]", "result": "did not cause significant cell death"},
      {"measurement": "inhibition of z-LRGG-AMC hydrolysis by ubiquitin isopeptidases", "setting": "ubiquitin isopeptidases [7]", "result": "did not"}
    ]}
  ]
}
